Test results from patent publication US10988462B2, “Pyrazole compounds substituted with heteroaryl and pharmaceutical use thereof” (Japan Tobacco Inc., priority 2018, dated 2021).

These molecules were tested against human SGLT1 (Homo sapiens (Human), UniProt P13866) (assay: SGLT1 inhibitory activity: intracellular uptake of 14C-AMG in human SGLT1-stably-expressing CHO-K1 cell line). Conditions: human SGLT1-stably-expressing CHO-K1 cells, 14C-AMG uptake; read-out: hSGLT1 IC50.
Type: cell-based
Description: SGLT1 inhibitory activities of test compounds (IC50 values) were calculated based on the amount of intracellular uptake of labelled α-methyl-D-glucopyranoside (^14C-AMG) transported by SGLT1.
1) Formation of Human SGLT1-Expressing Plasmid
A DNA fragment containing human SGLT1 was amplified by PCR (Polymerase Chain Reaction) using pCMV6-hSGLT1 (OriGene) as a template. In the human SGLT1, NheI recognition and cleavage sequence was added to the upstream of Kozac consensus sequence derived from a vector, and a stop codon, TAG, and SalI recognition and cleavage sequence were added to the immediate downstream of the protein-translating region of human SGLT1. The purified DNA fragment was cleaved by restriction enzymes NheI and SalI, followed by ligation with pcDNA3.1 (+) which was cleaved by NheI and XhoI, thereby forming human SGLT1-expressing plasmid, pcDNA-hSGLT1. The nucleic acid sequence of human SGLT1 inserted into a vector was completely identical to the protein-translated region of human SGLT1 sequence (Accession number NM_000343) registered in GenBank, and the sequence of the portion connected to the vector was as expected.
2) Establishment of Human SGLT1-Stably-Expressing Cell Lines
Human SGLT-expressing plasmid, pcDNA-hSGLT1, was transfected into each CHO-K1 cell by Lipofectamine 2000 (Invitrogen) and cultured in the presence of G418 (Nacalai Tesque) to select drug-resistant cell lines. A cell line having the highest ratio (S/B ratio) of the amount of intracellular uptake of ^14C-AMG per cell to the amount of intracellular uptake of ^14C-AMG after treatment with a SGLT inhibitor, phlorizin, was selected as a human SGLT1-stably-expressing cell line from the drug-resistant cell lines.
3) Assessment of SGLT1 Inhibitory Activity
Human SGLT1-stably-expressing cell lines were seeded at 5×10^4 cells/well on BioCoat™ Poly-D-Lysine 96 well plate with Lid (Becton, Dickinson and Company) and cultured at 37° C. under 5% CO2 overnight. The medium was replaced with 100 μL/well of Na(−) buffer (140 mM choline chloride, 2 mM KCl, 1 mM MgCl2, 1 mM CaCl2, 10 mM HEPES, 5 mM Tris, pH 7.4), and then the mixture was let stand at 37° C. under 5% CO2 for 20 minutes. After removal of Na(−) buffer, thereto was added 40 μL/well of a test compound solution prepared with Na(+) buffer (140 mM NaCl, 2 mM KCl, 1 mM MgCl2, 1 mM CaCl2, 10 mM HEPES, 5 mM Tris, pH 7.4) comprising BSA. Then, thereto was added 40 μL/well of Na(+) buffer comprising 8 kBq of ^14C-AMG and 2 mM AMG, and the mixture was mixed well. For a blank, 40 μL/well of Na(−) buffer comprising BSA was added, and in addition, 40 μL/well of Na(−) buffer comprising 8 kBq of ^14C-AMG and 2 mM AMG was added, and the mixture was mixed well. After incubation by being let stand for 1 hour at 37° C. under 5% CO2, cells were washed twice with 100 μL/well of ice-cooled wash buffer (100 mM AMG, 140 mM choline chloride, 2 mM KCl, 1 mM MgCl2, 1 mM CaCl2, 10 mM HEPES, 5 mM Tris, pH 7.4) to terminate the reaction. A cell lysate was prepared by addition of 50 μL/well of 0.2N aqueous NaOH solution. In the assessment for the uptake ability of ^14C-AMG, the total amount of the cell lysate was transferred to OptiPlate 96 (Perkin-Elmer) with 100 μL/well of MicroScint-40 (Perkin-Elmer) dispensed and ^14C of CPM was measured with TOPCOUNT NXT (Perkin-Elmer).
Data was calculated by deducting the average value of CPM for blank well from the average value of CPM for each well treated. An inhibition rate for each test compound in each concentration was calculated from the following equation: [(A−B)/A]×100 wherein A is data for a solvent control and B is data for treatment with each test compound.

human SGLT1, sequence (P13866 whole entry): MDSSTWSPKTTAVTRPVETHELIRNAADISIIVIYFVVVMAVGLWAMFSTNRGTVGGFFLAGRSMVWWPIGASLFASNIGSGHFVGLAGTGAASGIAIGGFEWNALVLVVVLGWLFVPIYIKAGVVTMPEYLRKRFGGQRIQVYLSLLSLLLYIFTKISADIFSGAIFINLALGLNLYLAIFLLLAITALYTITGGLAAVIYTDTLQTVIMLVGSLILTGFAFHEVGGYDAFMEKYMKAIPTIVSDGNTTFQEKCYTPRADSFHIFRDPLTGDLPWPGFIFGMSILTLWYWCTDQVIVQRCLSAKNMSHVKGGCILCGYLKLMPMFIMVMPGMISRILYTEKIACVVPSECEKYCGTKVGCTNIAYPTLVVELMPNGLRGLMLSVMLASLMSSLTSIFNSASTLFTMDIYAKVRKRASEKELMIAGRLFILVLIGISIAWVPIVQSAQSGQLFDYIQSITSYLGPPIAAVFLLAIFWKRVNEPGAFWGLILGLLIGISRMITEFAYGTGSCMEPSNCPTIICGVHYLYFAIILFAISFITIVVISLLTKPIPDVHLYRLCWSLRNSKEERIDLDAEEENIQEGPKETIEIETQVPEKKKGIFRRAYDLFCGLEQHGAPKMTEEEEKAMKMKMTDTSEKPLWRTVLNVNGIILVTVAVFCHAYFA

| SMILES | IC50 [nM] |
| --- | --- |
| C[C@H]1C(=O)NC[C@@H]1C(=O)Nc1cc(-c2cc(F)cc(OC(C)(C)C(F)(F)F)c2)n(-c2cnc(C(F)(F)F)nc2)n1 [Example 1, (3R,4R)—N-(5-(3-fluoro-5-((1,1,1-trifluoro-2-methylpropan-2-yl)oxy)phenyl)-1-(2-(trifluoromethyl)pyrimidin-5-yl)-1H-pyrazol-3-yl)-4-methyl-5-oxopyrrolidine-3-carboxamide] | 1.9 |
| C[C@H]1C(=O)NC[C@@H]1C(=O)Nc1cc(-c2cc(F)cc(OC(F)(F)F)c2)n(-c2cncc(F)c2)n1 [Example 2, (3R,4R)—N-(5-(3-fluoro-5-(trifluoromethoxy)phenyl)-1-(5-fluoropyridin-3-yl)-1H-pyrazol-3-yl)-4-methyl-5-oxopyrrolidine-3-carboxamide] | 14 |
| C[C@H]1C(=O)NC[C@@H]1C(=O)Nc1cc(-c2cc(F)cc(OC(F)(F)F)c2)n(-c2cncc(C(F)(F)F)c2)n1 [Example 3] | 8.6 |
| C[C@H]1C(=O)NC[C@@H]1C(=O)Nc1cc(-c2cc(F)cc(OC(C)(C)C)c2)n(-c2cnccn2)n1 [Example 4] | 23 |
| C[C@H]1C(=O)NC[C@@H]1C(=O)Nc1cc(-c2cccc(OC(F)(F)F)c2)n(-c2cncc(F)c2)n1 [Example 5] | 22 |
| C[C@H]1C(=O)NC[C@@H]1C(=O)Nc1cc(-c2cccc(OC(F)(F)F)c2)n(-c2cncc(Cl)c2)n1 [Example 6] | 9 |
| C[C@H]1C(=O)NC[C@@H]1C(=O)Nc1cc(-c2cccc(OC(F)(F)F)c2)n(-c2cncc(C(F)(F)F)c2)n1 [Example 7] | 17 |
| C[C@H]1C(=O)NC[C@@H]1C(=O)Nc1cc(-c2cc(F)cc(OC(C)(C)C(F)(F)F)c2)n(-c2ccnc(C(F)(F)F)n2)n1 [Example 9] | 73 |
| C[C@H]1C(=O)NC[C@@H]1C(=O)Nc1cc(-c2cc(F)cc(OC(C)(C)C(F)(F)F)c2)n(-c2cncc(C(F)(F)F)c2)n1 [Example 10] | 1.2 |
| C[C@H]1C(=O)NC[C@@H]1C(=O)Nc1cc(-c2cc(F)cc(OC(C)(C)C(F)(F)F)c2)n(-c2cccnc2C#N)n1 [Example 11] | 8.4 |
| C[C@H]1C(=O)NC[C@@H]1C(=O)Nc1cc(-c2cc(F)cc(OC(C)(C)C(F)(F)F)c2)n(-c2cccnc2C(F)(F)F)n1 [Example 12] | 4.3 |
| C[C@H]1C(=O)NC[C@@H]1C(=O)Nc1cc(-c2cc(F)cc(OC(C)(C)C(F)(F)F)c2)n(-c2cnccc2C(F)(F)F)n1 [Example 13] | 2.9 |
| C[C@H]1C(=O)NC[C@@H]1C(=O)Nc1cc(-c2cc(F)cc(OC(C)(C)C(F)(F)F)c2)n(-c2cnccc2C#N)n1 [Example 14] | 3.7 |
| C[C@H]1C(=O)NC[C@@H]1C(=O)Nc1cc(-c2cc(F)cc(OC(C)(C)C(F)(F)F)c2)n(-c2cnc(C(F)(F)F)cn2)n1 [Example 15] | 6.1 |
| C[C@H]1C(=O)NC[C@@H]1C(=O)Nc1cc(-c2cc(F)cc(OC(C)(C)C(F)(F)F)c2)n(-c2nccc(C(F)(F)F)n2)n1 [Example 16] | 83 |
| C[C@H]1C(=O)NC[C@@H]1C(=O)Nc1cc(-c2cc(F)cc(OC(C)(C)C(F)(F)F)c2)n(-c2cncc(Cl)c2)n1 [Example 17] | 1.3 |
| C[C@H]1C(=O)NC[C@@H]1C(=O)Nc1cc(-c2cc(F)cc(OC(C)(C)C(F)(F)F)c2)n(-c2cncc(C(F)(F)F)n2)n1 [Example 18] | 29 |
| C[C@H]1C(=O)NC[C@@H]1C(=O)Nc1cc(-c2cc(F)cc(OC(C)(C)C(F)(F)F)c2)n(-c2nccnc2C(F)(F)F)n1 [Example 19] | 29 |
| C[C@H]1C(=O)NC[C@@H]1C(=O)Nc1cc(-c2cc(F)cc(OC(C)(C)C(F)(F)F)c2)n(-c2ccc(C(F)(F)F)nc2)n1 [Example 20] | 1.2 |

| SMILES | IC50 [nM] |
| --- | --- |
| C[C@H]1C(=O)NC[C@@H]1C(=O)Nc1cc(-c2cc(F)cc(OC(C)(C)C(F)(F)F)c2)n(-c2cncc(F)c2)n1 [Example 21] | 1.2 |
| C[C@H]1C(=O)NC[C@@H]1C(=O)Nc1cc(-c2cc(F)cc(OC(C)(C)C(F)(F)F)c2)n(-c2cncnc2)n1 [Example 22] | 3.4 |
| C[C@H]1C(=O)NC[C@@H]1C(=O)Nc1cc(-c2cc(F)cc(OC(C)(C)C(F)(F)F)c2)n(-c2cnccn2)n1 [Example 23] | 11 |
| C[C@H]1C(=O)NC[C@@H]1C(=O)Nc1cc(-c2cc(F)cc(OC(C)(C)C(F)(F)F)c2)n(-c2ccc(C(F)(F)F)cn2)n1 [Example 24] | 5.3 |
| C[C@H]1C(=O)NC[C@@H]1C(=O)Nc1cc(-c2cc(F)cc(OCC(F)(F)F)c2)n(-c2cnc(C(F)(F)F)nc2)n1 [Example 25] | 5.7 |
| C[C@H]1C(=O)NC[C@@H]1C(=O)Nc1cc(-c2cccc(OC(F)(F)F)c2)n(-c2cnc(C(F)(F)F)nc2)n1 [Example 26] | 47 |
| C[C@H]1C(=O)NC[C@@H]1C(=O)Nc1cc(-c2cc(F)cc(OC(F)(F)F)c2)n(-c2cnc(C(F)(F)F)nc2)n1 [Example 27] | 30 |
| C[C@H]1C(=O)NC[C@@H]1C(=O)Nc1cc(-c2cc(F)cc(OC(F)(F)F)c2)n(-c2ccc(C(F)(F)F)nc2)n1 [Example 28] | 7.2 |
| C[C@H]1C(=O)NC[C@@H]1C(=O)Nc1cc(-c2cc(F)cc(OC(F)(F)F)c2)n(-c2cncnc2)n1 [Example 29] | 52 |
| C[C@H]1C(=O)NC[C@@H]1C(=O)Nc1cc(-c2cc(F)cc(OC(F)(F)F)c2)n(-c2cncc(Cl)c2)n1 [Example 30] | 2.7 |
| C[C@H]1C(=O)NC[C@@H]1C(=O)Nc1cc(-c2cc(F)cc(OCC(F)(F)F)c2)n(-c2cncc(C(F)(F)F)c2)n1 [Example 31] | 5.7 |
| C[C@H]1C(=O)NC[C@@H]1C(=O)Nc1cc(-c2cc(F)cc(OCC(F)(F)F)c2)n(-c2cncnc2)n1 [Example 32] | 69 |
| C[C@H]1C(=O)NC[C@@H]1C(=O)Nc1cc(-c2cc(F)cc(OCC(F)(F)F)c2)n(-c2ccc(C(F)(F)F)nc2)n1 [Example 33] | 5.9 |
| C[C@H]1C(=O)NC[C@@H]1C(=O)Nc1cc(-c2cc(F)cc(OCC(F)(F)F)c2)n(-c2cncc(F)c2)n1 [Example 34] | 9.8 |
| C[C@H]1C(=O)NC[C@@H]1C(=O)Nc1cc(-c2cc(F)cc(OCC(F)(F)F)c2)n(-c2cncc(Cl)c2)n1 [Example 35] | 4.6 |
| COc1ncc(-n2nc(NC(=O)[C@H]3CNC(=O)[C@@H]3C)cc2-c2cc(F)cc(OC(C)(C)C(F)(F)F)c2)cn1 [Example 36] | 1.9 |
| C[C@H]1C(=O)NC[C@@H]1C(=O)Nc1cc(-c2cc(F)cc(OC(C)(C)C(F)(F)F)c2)n(-c2cnc(N(C)C)nc2)n1 [Example 37] | 0.98 |
| Cc1ncc(-n2nc(NC(=O)[C@H]3CNC(=O)[C@@H]3C)cc2-c2cc(F)cc(OC(C)(C)C(F)(F)F)c2)cn1 [Example 38] | 4 |

What follows are molecules tested on Escherichia coli WP2uvrA (assay: Ames test (reverse mutation test), pre-incubation method, strain WP2uvrA). Conditions: positive control; S9 mix −; dose 0.01 μg/plate.
Type: cell-based
Source text: Ames Test (Reverse Mutation Test)
Two plates per treatment were used.

| SMILES | Number of revertant colonies WP2uvrA |
| --- | --- |
| NC(=O)C(=Cc1ccc([N+](=O)[O-])o1)c1ccco1 [AF-2, 2-(2-Furyl)-3-(5-nitro-2-furyl)acrylamide, reference compound] | 154 |
